Measured values as given in ChEMBL document CHEMBL1133314, “Syntheses and biological evaluation of novel pseudomycin side-chain analogues. Part 2” (2000).
Converted amounts (≈) assume the structure as drawn.

Assays:
[1] = tested on: Aspergillus fumigatus; test: Lowest concentration required to inhibit 90-100% of the visible growth of Aspergillus fumigatus; type: functional
[2] = tested on: Cryptococcus neoformans; test: Tested in vitro for lowest concentration required to inhibit 90-100% of the visible growth of Cryptococcus neoformans
[3] = tested on: Candida albicans; test: Lowest concentration required to inhibit 90-100% of the visible growth of Candida albicans; type: functional
[4] = tested on: Candida albicans; test: Lowest concentration required to inhibit 90-100% of the visible growth of Candida albicans; Range is 0.312-1.25; type: functional
[5] = tested on: Candida albicans; test: Lowest concentration required to inhibit 90-100% of the visible growth of Candida albicans; Range is […]; type: functional
[6] = tested on: Candida albicans; test: Lowest concentration required to inhibit 90-100% of the visible growth of Candida albicans; Range is 0.625-1.25; type: functional
[7] = tested on: Cryptococcus neoformans; test: Tested in vitro for lowest concentration required to inhibit 90-100% of the visible growth of Cryptococcus neoformans; Range is 0.02-0.078

Structure (SMILES)	MIC [1] [µg/mL]	MIC [2] [µg/mL]	MIC [3] [µg/mL]	MIC [7] [µg/mL]	MIC [4] [µg/mL]	MIC [5] [µg/mL]	MIC [6] [µg/mL]
C/C=C1\NC(=O)[C@H]([C@H](C)O)NC(=O)[C@H](CCN)NC(=O)[C@H](CCCCN)NC(=O)[C@H](CC(=O)O)NC(=O)[C@@H](CCN)NC(=O)[C@@H](NC(=O)C[C@H](O)CCCCCCCCCCC)COC(=O)[C@H]([C@H](O)CCl)NC(=O)[C@H]([C@H](O)C(=O)O)NC1=O [PSEUDOMYCIN B]	> 20	–	–	–	1.25 (≈ 1.03 µM)	–	–
C/C=C1\NC(=O)[C@H]([C@H](C)O)NC(=O)[C@H](CCN)NC(=O)[C@H](CCCCN)NC(=O)[C@H](CC(=O)O)NC(=O)[C@@H](CCN)NC(=O)[C@@H](NC(=O)C[C@@H](O)CCCCCCCCCCC)COC(=O)[C@H]([C@H](O)CCl)NC(=O)[C@H]([C@H](O)C(=O)O)NC1=O	> 20	–	–	–	–	5 (≈ 4.14 µM)	–
C/C=C1\NC(=O)[C@H]([C@@H](C)O)NC(=O)[C@H](CCN)NC(=O)[C@H](CCCCN)NC(=O)[C@H](CC(=O)O)NC(=O)[C@@H](CCN)NC(=O)[C@@H](NC(=O)CC(O)CCCCCCCCCCC)COC(=O)[C@H]([C@H](O)CCl)NC(=O)[C@H]([C@H](O)C(=O)O)NC1=O (mixture of isomers)	> 20	–	–	–	–	–	1.25
C/C=C1\NC(=O)[C@H]([C@@H](C)O)NC(=O)[C@H](CCN)NC(=O)[C@H](CCCCN)NC(=O)[C@H](CC(=O)O)NC(=O)[C@@H](CCN)NC(=O)[C@@H](NC(=O)CC(O)CCCCCCCCCCCCCCCCC)COC(=O)[C@H]([C@H](O)CCl)NC(=O)[C@H]([C@H](O)C(=O)O)NC1=O (mixture of isomers)	2.5	0.625	10	–	–	–	–

Continued, in another order:

MIC [1] [µg/mL]	MIC [2] [µg/mL]	MIC [3] [µg/mL]	MIC [7] [µg/mL]	Structure (SMILES)	MIC [4] [µg/mL]	MIC [5] [µg/mL]	MIC [6] [µg/mL]
2.5 (≈ 1.98 µM)	0.01 (≈ 0.00791 µM)	0.625 (≈ 0.495 µM)	–	C/C=C1\NC(=O)[C@H]([C@H](C)O)NC(=O)[C@H](CCN)NC(=O)[C@H](CCCCN)NC(=O)[C@H](CC(=O)O)NC(=O)[C@@H](CCN)NC(=O)[C@@H](NC(=O)C[C@H](O)CCCCCCCCCCCCCCC)COC(=O)[C@H]([C@H](O)CCl)NC(=O)[C@H]([C@H](O)C(=O)O)NC1=O	–	–	–
5	–	1.25	0.02	C/C=C1\NC(=O)[C@H]([C@@H](C)O)NC(=O)[C@H](CCN)NC(=O)[C@H](CCCCN)NC(=O)[C@H](CC(=O)O)NC(=O)[C@@H](CCN)NC(=O)[C@@H](NC(=O)CC(O)CCCCCCCCCCCCCCC)COC(=O)[C@H]([C@H](O)CCl)NC(=O)[C@H]([C@H](O)C(=O)O)NC1=O (mixture of isomers)	–	–	–
5 (≈ 3.87 µM)	1.25 (≈ 0.968 µM)	5 (≈ 3.87 µM)	–	C/C=C1\NC(=O)[C@H]([C@H](C)O)NC(=O)[C@H](CCN)NC(=O)[C@H](CCCCN)NC(=O)[C@H](CC(=O)O)NC(=O)[C@@H](CCN)NC(=O)[C@@H](NC(=O)C[C@H](O)CCCCCCCCCCCCCCCCC)COC(=O)[C@H]([C@H](O)CCl)NC(=O)[C@H]([C@H](O)C(=O)O)NC1=O	–	–	–
> 20	5 (≈ 3.87 µM)	5 (≈ 3.87 µM)	–	C/C=C1\NC(=O)[C@H]([C@H](C)O)NC(=O)[C@H](CCN)NC(=O)[C@H](CCCCN)NC(=O)[C@H](CC(=O)O)NC(=O)[C@@H](CCN)NC(=O)[C@@H](NC(=O)C[C@@H](O)CCCCCCCCCCCCCCCCC)COC(=O)[C@H]([C@H](O)CCl)NC(=O)[C@H]([C@H](O)C(=O)O)NC1=O	–	–	–
10 (≈ 7.91 µM)	0.312 (≈ 0.247 µM)	2.5 (≈ 1.98 µM)	–	C/C=C1\NC(=O)[C@H]([C@H](C)O)NC(=O)[C@H](CCN)NC(=O)[C@H](CCCCN)NC(=O)[C@H](CC(=O)O)NC(=O)[C@@H](CCN)NC(=O)[C@@H](NC(=O)C[C@@H](O)CCCCCCCCCCCCCCC)COC(=O)[C@H]([C@H](O)CCl)NC(=O)[C@H]([C@H](O)C(=O)O)NC1=O	–	–	–
